Experiments:
HLA-DRB1*0401 = HLA-DRB1*0401 (Homo sapiens (Human), UniProt P01903+P01911, A100K/A169T/DEL228-266/F76Y/I96L/K127E/L162R/M171V/N62H/P40V/Q125Y/R42H/S133A/S149N/S66Y/V115G/V209L/W38E); assay: HLA-DR4 HTRF assay; assay type: binding; settings: inhibition of loading of Alexa Fluor 647-labeled Cit-CII peptide onto HLA-DR4 (CLIP cleaved)
In short: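 HLA-DRB1*04:01 construct (α/β fused to human Fc, CLIP pre-cleaved by HRV3C overnight at 4° C) at 3 nM was preincubated 45 min with compound and 1 nM anti-Fc-Tb donor, then 40 nM Alexa647-Cit-CII1236-1249 peptide added. After 90 min at 37° C, the 665/620 nm HTRF ratio gave % inhibition; IC50 by nonlinear regression.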

[1] = tested on: HLA-DR4 restricted mouse T cell hybridoma line (DR4.CII.36.8) with HLA-DRB1*04:01-expressing Boleth cells; assay: HLA-DR4-restricted peptide-specific T cell-based assay (hybridoma assay); settings: 6 h, inhibition of IL-2 production, CII259-273 peptide presented by Boleth cells
In short: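 Boleth cells (HLA-DRB1*04:01 B cell line) pre-incubated with compound 1 h at 37° C. in DMEM/1% FCS, then DR4.CII.36.8 mouse T cell hybridoma (CII259-273-specific) added for 6 h with CII259-273 peptide. Supernatant mouse IL-2 by AlphaLISA; IC50 by 4-PL fit of 8-point duplicate titrations.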

[2] = tested on: human peripheral blood CD4+ helper T cells; assay: Pan-CD4+ T cell activation (off-target assay); assay type: cell-based; settings: anti-CD3/anti-CD28 stimulation, IL-2 production by ELISA
Excerpt: The counter-screening was made through an HLA-DR-independent assay (Pan-CD4+ T cell activation assay), i.e., TCR-stimulated pan-T cell activation assay, and consists of activating T cell directly with agonistic antibody targeting the T cell receptor. The lack of inhibition in the counter-screening assay reflects that the inhibition of T cell activation in the HLA-DR4 restricted peptide-specific T cell based assay with the small molecule inhibitors is due to impaired antigen presentation on HLA-DR to the T cell and not due to a direct inhibition of the T cell function by an off-target mechanism (i.e., independently of targeting HLA-DR).
Pan-CD4+ T Cell Activation
Compounds were tested using a pan-T cell activation assay. In this assay, anti-human CD3 antibody (BD Pharmingen #55336) pre-coated at 1 μg/mL to a 96-well assay plate and 1 μg/ml soluble anti-human CD28 (EBioscience #16-0289-85) antibody were used for activating human peripheral blood CD4+ helper T cells (no HLA-DR-expressing APC were present in this assay format), in the presence of compounds (or vehicle control) for 24 hrs. IL-2 production was measured in the culture supernatant by ELISA (Human IL-2 Duo Set ELISA #DY202 from R&D Systems).

SMILES	IC50 (HLA-DRB1*0401)	IC50 ([1]; Mus musculus, T-cell)	IC50 ([2]; Homo sapiens, T-cell, 24 h)	IC50 [1]	IC50 ([2]; 24 hrs)
COc1ccc(COc2ccc([C@H](Oc3ccc4c(c3)OCCC4=O)c3ccncc3)cc2)cc1 (single isomer, unassigned) [Example 17b, (*S)-7-((4-((4-Methoxybenzyl)oxy)phenyl)(pyridin-4-yl)methoxy)chroman-4-one]	4.9 µM	7.7 µM	4.8 µM	–	–
NC(=O)c1ccc([C@H](Oc2ccc3c(c2)OCCC3=O)c2ccnc(C(F)(F)F)c2)cc1 (single isomer, unassigned) [Example 18b, (*S)-4-(((4-oxochroman-7-yl)oxy)(2-(trifluoromethyl)pyridin-4-yl)methyl)benzamide]	0.95 µM	12 µM	9.9 µM	–	–
NC(=O)c1ccc([C@@H](Oc2ccc3c(c2)OCCC3=O)c2ccncc2C(F)(F)F)cc1 (single isomer, unassigned) [Example 19a, (*R)-4-(((4-oxochroman-7-yl)oxy)(3-(trifluoromethyl)pyridin-4-yl)methyl)benzamide]	0.82 µM	3.6 µM	1.8 µM	–	–
NC(=O)c1ccc([C@H](Oc2ccc3c(c2)OCCC3=O)c2ccncc2C(F)(F)F)cc1 (single isomer, unassigned) [Example 19b, (*S)-4-(((4-oxochroman-7-yl)oxy)(3-(trifluoromethyl)pyridin-4-yl)methyl)benzamide]	1.2 µM	7.6 µM	4.7 µM	–	–
NC(=O)c1ccc([C@@H](Oc2ccc3c(c2)OCCC3=O)c2ccnc3ccccc23)cc1 (single isomer, unassigned) [Example 22a, (*R)-4-(((4-oxochroman-7-yl)oxy)(quinolin-4-yl)methyl)benzamide]	1.3 µM	1.9 µM	4.7 µM	–	–
NC(=O)c1ccc([C@H](Oc2ccc3c(c2)OCCC3=O)c2ccnc3ccccc23)cc1 (single isomer, unassigned) [Example 22b, (*S)-4-(((4-oxochroman-7-yl)oxy)(quinolin-4-yl)methyl)benzamide]	1.2 µM	2.2 µM	15 µM	–	–
COc1cnccc1[C@@H](Oc1ccc2c(c1)OCCC2=O)c1ccc(C(N)=O)cc1 (single isomer, unassigned) [Example 23b, (*S)-4-((3-methoxypyridin-4-yl)((4-oxochroman-7-yl)oxy)methyl)benzamide]	0.68 µM	5 µM	> 15 µM	–	–
COc1cc([C@H](Oc2ccc3c(c2)OCCC3=O)c2ccc(C(N)=O)cc2)ccn1 (single isomer, unassigned) [Example 24a, (*R)-4-((2-methoxypyridin-4-yl)((4-oxochroman-7-yl)oxy)methyl)benzamide]	1.4 µM	5.1 µM	> 15 µM	–	–
COc1cc([C@@H](Oc2ccc3c(c2)OCCC3=O)c2ccc(C(N)=O)cc2)ccn1 (single isomer, unassigned) [Example 24b, (*S)-4-((2-methoxypyridin-4-yl)((4-oxochroman-7-yl)oxy)methyl)benzamide]	1.2 µM	2.7 µM	4.7 µM	–	–
NC(=O)c1ccc([C@H](Oc2ccc3c(c2)OCCC3=O)c2ccncc2-c2ccccc2)cc1 (single isomer, unassigned) [Example 25b, (*S)-4-(((4-oxochroman-7-yl)oxy)(3-phenylpyridin-4-yl)methyl)benzamide]	0.49 µM	4.5 µM	3.2 µM	–	–
NC(=O)c1ccc([C@@H](Oc2ccc3c(c2)OCCC3=O)c2ccnc(-c3ccccc3)c2)cc1 (single isomer, unassigned) [Example 26a, (*R)-4-(((4-oxochroman-7-yl)oxy)(2-phenylpyridin-4-yl)methyl)benzamide]	64 µM	1.1 µM	> 15 µM	–	–
NC(=O)c1ccc([C@H](Oc2ccc3c(c2)OCCC3=O)c2ccnc(-c3ccccc3)c2)cc1 (single isomer, unassigned) [Example 26b, (*S)-4-(((4-oxochroman-7-yl)oxy)(2-phenylpyridin-4-yl)methyl)benzamide]	88 µM	1.6 µM	15 µM	–	–
NC(=O)c1ccc([C@H](Oc2ccc3c(c2)OCCC3=O)c2ccnc(N)c2)cc1 (single isomer, unassigned) [Example 28b, (*S)-4-((2-aminopyridin-4-yl)((4-oxochroman-7-yl)oxy)methyl)benzamide]	1.7 µM	3.5 µM	> 15 µM	–	–
NC(=O)c1ccc([C@H](Oc2ccc3c(c2)OCCC3=O)c2ccccc2)cc1 (single isomer, unassigned) [Example 29a, (*R)-4-(((4-oxochroman-7-yl)oxy)(phenyl)methyl)benzamide]	1.1 µM	2.3 µM	> 15 µM	–	–
NC(=O)c1ccc([C@@H](Oc2ccc3c(c2)OCCC3=O)c2ccccc2)cc1 (single isomer, unassigned) [Example 29b, (*S)-4-(((4-oxochroman-7-yl)oxy)(phenyl)methyl)benzamide]	0.96 µM	5 µM	> 15 µM	–	–
NC(=O)c1ccc([C@@H](Oc2ccc3c(c2)OCCC3=O)c2cccnc2)cc1 (single isomer, unassigned) [Example 31a, (*R)-4-(((4-oxochroman-7-yl)oxy)(pyridin-3-yl)methyl)benzamide]	0.85 µM	5.5 µM	15 µM	–	–
NC(=O)c1ccc([C@@H](Oc2ccc3c(c2)OCCC3=O)c2cccnc2)cc1 (single isomer, unassigned) [Example 31b, (*S)-4-(((4-oxochroman-7-yl)oxy)(pyridin-3-yl)methyl)benzamide]	0.64 µM	–	–	3.5 µM	> 15 µM
CNC(=O)c1ccc([C@@H](Oc2ccc3c(c2)OCCC3=O)c2ccncc2)cc1 (single isomer, unassigned) [Example 34a, (*R)—N-methyl-4-(((4-oxochroman-7-yl)oxy)(pyridin-4-yl)methyl)benzamide]	0.8 µM	12 µM	9.9 µM	–	–
CNC(=O)c1ccc([C@H](Oc2ccc3c(c2)OCCC3=O)c2ccncc2)cc1 (single isomer, unassigned) [Example 34b, (*S)—N-methyl-4-(((4-oxochroman-7-yl)oxy)(pyridin-4-yl)methyl)benzamide]	0.69 µM	> 15 µM	> 15 µM	–	–
Cc1cc(C(N)=O)ccc1[C@H](Oc1ccc2c(c1)OCCC2=O)c1ccncc1 (single isomer, unassigned) [Example 36a, (*R)-3-methyl-4-(((4-oxochroman-7-yl)oxy)(pyridin-4-yl)methyl)benzamide]	0.55 µM	4.8 µM	4.7 µM	–	–
N#Cc1ccc([C@H](Oc2ccc3c(c2)OCCC3=O)c2ccncc2)c2ccccc12 (single isomer, unassigned) [Example 37a, (*R)-4-(((4-oxochroman-7-yl)oxy)(pyridin-4-yl)methyl)-1-naphthonitrile]	33 µM	9.3 µM	2 µM	–	–
N#Cc1ccc([C@@H](Oc2ccc3c(c2)OCCC3=O)c2ccncc2)c2ccccc12 (single isomer, unassigned) [Example 37b, (*S)-4-(((4-oxochroman-7-yl)oxy)(pyridin-4-yl)methyl)-1-naphthonitrile]	24 µM	5.1 µM	9.9 µM	–	–
O=C1CCOc2cc(O[C@@H](c3ccncc3)C3CCCCC3)ccc21 (single isomer, unassigned) [Example 38a, (*R)-7-(cyclohexyl(pyridin-4-yl)methoxy)chroman-4-one]	4.6 µM	4 µM	4.7 µM	–	–
O=C1CCOc2cc(O[C@H](c3ccncc3)C3CCCCC3)ccc21 (single isomer, unassigned) [Example 38b, (*S)-7-(cyclohexyl(pyridin-4-yl)methoxy)chroman-4-one]	4.1 µM	5.5 µM	> 15 µM	–	–
C[C@@H]1CC(=O)c2ccc(O[C@@H](c3ccncc3)c3ccc(C(N)=O)cc3)cc2O1 (single isomer, unassigned) [Example 39b, 4-((*R)—(((*R)-2-Methyl-4-oxochroman-7-yl)oxy)(pyridin-4-yl)methyl)benzamide]	0.85 µM	0.6 µM	9.9 µM	–	–

From patent US12516038B2, “Inhibitors of antigen presentation by HLA-DR” (Janssen Pharmaceutica NV, priority 2020, dated 2026)
